This is an account of results in ChEMBL document CHEMBL4804284.

For this assay, the target named is Hormonally up-regulated neu tumor-associated kinase (Homo sapiens) (UniProt P57058). Kind of assay: Inhibition of DNA-tagged human HUNK assessed as percent of control at 50000 nM by qPCR analysis relative to control. More on the design: scale not given: the % may be the effect or the level left.
Chain of Hormonally up-regulated neu tumor-associated kinase (Homo sapiens) (P57058 whole entry): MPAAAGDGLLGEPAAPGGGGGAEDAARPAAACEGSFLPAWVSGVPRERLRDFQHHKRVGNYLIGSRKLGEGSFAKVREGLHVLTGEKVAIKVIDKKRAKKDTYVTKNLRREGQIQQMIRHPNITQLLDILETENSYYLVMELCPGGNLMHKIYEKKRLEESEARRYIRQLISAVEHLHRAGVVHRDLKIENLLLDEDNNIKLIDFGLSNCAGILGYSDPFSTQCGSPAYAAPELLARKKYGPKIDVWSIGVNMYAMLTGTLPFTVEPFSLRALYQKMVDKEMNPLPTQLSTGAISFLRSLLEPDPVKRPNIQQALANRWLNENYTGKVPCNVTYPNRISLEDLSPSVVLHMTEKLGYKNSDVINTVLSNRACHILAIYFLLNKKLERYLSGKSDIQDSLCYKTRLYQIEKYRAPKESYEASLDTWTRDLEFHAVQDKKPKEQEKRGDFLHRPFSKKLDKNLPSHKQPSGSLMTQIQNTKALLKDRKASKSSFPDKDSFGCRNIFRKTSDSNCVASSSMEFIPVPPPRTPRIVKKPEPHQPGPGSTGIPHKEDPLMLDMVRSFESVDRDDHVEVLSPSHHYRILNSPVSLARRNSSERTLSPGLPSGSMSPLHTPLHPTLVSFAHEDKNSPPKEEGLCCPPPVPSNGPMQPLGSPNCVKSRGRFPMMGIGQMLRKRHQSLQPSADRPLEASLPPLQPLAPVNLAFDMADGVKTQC

Turning to `CN1C(=O)/C(=C2/C(=O)Nc3ccccc32)c2ccccc21`, the Activity was found to be 98%.
